# Results reported in paper PMC10119282, “Molecular characterization of AIFM2/FSP1 inhibition by iFSP1-like molecules” (Cell Death & Disease, 2023).
# Key:
# [1] = tested on: Pfa1 Gpx4−/− cell line overexpressing hFSP1, mFSP1 and hFSP1 F360L mutants; test: BODIPY 581/591 C11 oxidation (flow cytometry); assay type: cell-based, murine; settings: iFSP1 3 µM for 3 h with Lip-1; all conditions
# Procedure: In total, 150,000 cells per well were seeded on 6-well dishes one day prior to the experiment. […] Cells were incubated with C11-BODIPY (581/591) (1 μM) for 30 min at 37 °C before they were harvested by trypsinisation. Subsequently, cells were resuspended in 500 μL of fresh PBS (DPBS, Gibco) and analyzed using a 488-nm laser excitation laser and fluorescence recorded on a (FACS Canto II, BD Biosciences). Data was collected from the FL1 detector (C11-BODIPY, Invitrogen) with a 502LP and 530/30 BP filter. At least 20,000 events were analyzed per sample. Data was analyzed using FlowJo Software version 10.8.1.
# [2] = tested on: Pfa1 Gpx4−/− cells overexpressing human FSP1 (hFSP1); test: Cell viability (Alamar blue), dose-response toxicity in Gpx4-knockout cells expressing hFSP1; assay type: cell-based, murine; settings: cells treated with iFSP1
# Procedure: (§1) Cell Lines. 4-hydroxytamoxifen (TAM)-inducible Gpx4^−/− murine immortalized fibroblasts (Pfa1) were reported previously. These cells harbor two loxP-flanked Gpx4 alleles and stably express TAM inducible Cre recombinase allowing the genetic deletion of Gpx4 at will. For all experiments using Gpx4^−/− the well were treated with 4-hydroxitamoxifen (TAM) 1 µM. All cells were cultured with were cultured in DMEM-high glucose (4.5 g glucose/L) with 10% fetal bovine serum (FBS), Glutamax, and 1% penicillin/streptomycin (Gibco, Thermo Fischer) at 37 °C with 5% CO2 and verified to be negative for mycoplasma.
# (§2) Cell viability assays. Alamar Blue method: Cells were seeded on 96-well plates (2000 cells per well) and treated with the compounds RSL3, iFSP1 and (liproxstatin-1) after plating. Cell viability was assessed 48 h (unless stated otherwise) after treatment using Alamar Blue as an indicator of viable cells. Alamar blue solution was made by dissolving of 1 g resazurin sodium salt (Thermo Fischer) in 200 mL sterile PBS and sterile filtrated through a 0.22 µm filter. Stock solutions were stored at 4 °C. The working solution was made freshly by adding 200 µL of the stock solution to 25 mL growth media. After 2–4 h incubation time, viability was estimated by measuring the fluorescence using a 540/35 excitation filter and a 590/20 emission on a Spark® microplate reader (Tecan, Zürich, Switzerland).
# Codon-optimized Mus musculus (mouse) FSP1 (NP_001034283.1) and Homo sapiens (Human) FSP1 (NP_001185625.1) were synthesized by IDT as gBlocks^TM and subcloned into p442-IRES-blast vectors. The chimera constructs were generated based on the pairwise alignment between the gene of Homo sapiens (Human) and the Mus musculus (Mouse), all the chimeric constructs contain the murine isoform with one region exchanged to the human isoform. […]
# [3] = tested on: Pfa1 Gpx4−/− overexpressing hFSP1 WT, hFSP1 F360L and mFSP1 WT; test: Cell viability response to N-myristoyltransferase inhibitor IMP-1088; assay type: cell-based, murine
# Procedure: as §1, §2
# hFSP1 WT = biological target: T1, hFSP1 WT (Homo sapiens, UniProt Q9BRQ8); test: Competition MST against pre-formed complex of hFSP1 WT and FSP1-Tracer; assay type: binding; settings: hFSP1 WT 5 µM and FSP1-Tracer 5 nM pre-formed complex
# T1 construct: HisSUMO (cleaved yes); made in house; host or cells: E. coli BL21
# T1 sequence (Q9BRQ8 1-373): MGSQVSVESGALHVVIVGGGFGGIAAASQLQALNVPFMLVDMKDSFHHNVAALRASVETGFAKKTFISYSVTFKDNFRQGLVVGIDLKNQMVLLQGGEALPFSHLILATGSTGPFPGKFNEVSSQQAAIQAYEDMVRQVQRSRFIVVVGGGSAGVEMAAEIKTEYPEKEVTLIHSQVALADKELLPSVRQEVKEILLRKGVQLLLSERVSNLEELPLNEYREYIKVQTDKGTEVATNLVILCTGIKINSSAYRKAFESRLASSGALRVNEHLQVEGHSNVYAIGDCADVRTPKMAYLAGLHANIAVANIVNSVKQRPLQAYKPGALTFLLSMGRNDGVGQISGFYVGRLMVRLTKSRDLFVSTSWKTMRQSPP
# Procedure: FSP1 (human isoform 1, UniProt Q9BRQ8-1) WT (hFSP1 WT) and F360L (hFSP1 F360L) were expressed in E.coli BL21 as HisSUMO fusion protein. Cells were grown in lysogeny broth medium at 18 °C and induced with 0.5 mM isopropyl-β-thiogalactoside at a cell density A600 of 0.6. Cells were collected after overnight expression by centrifugation, resuspended in lysis buffer ([…], 50 mM Tris-HCl pH 8, 1 mM TCEP, 20 mM imidazole, protease inhibitor, DNase) and lysed by sonication. Cell debris was removed by centrifugation (30,000 × g) at 4 °C for 30 min, after which an IMAC purification was performed. Briefly, a HisTrap crude FF (5 mL) column was equilibrated to lysis buffer, lysates were loaded via the sample pump and the column was then washed with 50 mL lysis buffer. During the elution with a gradient to 100% IMAC elution buffer (300 mM NaCl, 50 mM Tris-HCl pH 8, 1 mM TCEP, 400 mM imidazole) over 100 mL, 5 mL fractions were collected. The pooled fractions were dialysed overnight in the presence of SenP2 SUMO protease at a ratio of 40:1 FSP1:SenP2. Afterwards, a reverse IMAC purification was performed on a HisTrap crude FF (5 mL) column. IMAC eluates were analysed by SDS PAGE and concentrated to 15 mL (hFSP1 WT) and 5 mL (hFSP1 F360L), respectively. […] Pure fractions were pooled (C12—D11 for hFSP1 WT and C7—D4 for hFSP1 F360L), analysed by SDS-PAGE (Supplementary Fig. 4) and concentrated to 5.8 mL at 285.9 µM (hFSP1 WT) and 1.2 mL at 269.5 µM (FSP1 F360L), flash frozen in liquid N2 and stored at −80 °C.
# An MST buffer consisting of 1× phosphate-buffered saline (PBS; 137 mM NaCl, 2.7 mM KCl, 10 mM Na2HPO4, 1.8 mM KH2PO4, pH 7.4) with 2 mM reduced L-Glutathione (GSH, Sigma Aldrich, product number G4251) and 0.05% (v/v) Tween 20 (ITW Reagents, molecular biology grade, product number A4974) was used for all MST measurements. […] KD values were determined by applying a Hill-fit to a plot of Fnorm vs. hFSP1 WT/F360L concentration. […]
# [4] = tested on: Pfa1 cells overexpressing the mock, hFSP1 WT, hFSP1 F360L and mFSP1 WT; test: Cell viability response to GPX4 inhibitor RSL3; assay type: cell-based, murine; settings: Alamar blue viability
# Procedure: as §1, §2
smiles,measurement,setting,value
"Clc1cccc(CN=C2Nc3ccccc3NC23CCNCC3)c1 [Lip-1, liproxstatin-1]",rescue of the iFSP1-induced increase in BODIPY-C11 signal,[1],could be rescued
same,rescue from iFSP1-induced ferroptosis,[2],rescuing the cells
Cc1nn(C)c(C)c1CCOc1c(-c2ccc3c(c2)c(CN(C)C)nn3C)ccc(F)c1F [IMP-1088],ferroptosis induction across FSP1 variants,[3],all mutants undergo ferroptosis similarly
NC(=O)C1=CN(C2OC(COP(=O)(O)OP(=O)(O)OCC3OC(n4cnc5c(N)ncnc54)C(O)C3O)C(O)C2O)C=CC1 (centres unmarked) [NADH],Ki,hFSP1 WT,455 nM
"COC(=O)c1ccc([C@@H]2c3[nH]c4ccccc4c3C[C@@H](C(=O)OC)N2C(=O)CCl)cc1 [RSL3, (1 S,3 R)-RSL3]",difference in response to the GPX4 inhibitor between cells overexpressing the FSP1 variants,[4],no difference in response
